Laboratory results published in PubChem BioAssay (NCI).
Values joined by “and” are separate entries in the source; they are usually repeats but may differ in a detail not shown here. Equal values may be shown once.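 Five compound concentrations were applied to cells in 96-well plates for 48 hours; endpoints were derived by simple linear interpolation of the resulting dose-response curve. GI50 marks 50% less growth. TGI: concentration producing complete growth inhibition.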

Columns and labels:
Test in all cases: NCI tumour cell line growth inhibition, 48 h
OVCAR-8 ovarian = tested on: OVCAR-8 ovarian
NCI-H23 lung = tested on: NCI-H23 lung
UACC-257 melanoma = tested on: UACC-257 melanoma
LOX IMVI melanoma = tested on: LOX IMVI melanoma
PC-3 prostate = tested on: PC-3 prostate
MALME-3M melanoma = tested on: MALME-3M melanoma
T-47D breast = tested on: T-47D breast
SNB-19 CNS = tested on: SNB-19 CNS

## CC(C)c1[nH]nc(C(N)=O)c1N=NN(C)C
OVCAR-8 ovarian
  TGI: > 100 µM
NCI-H23 lung
  TGI: > 100 µM
UACC-257 melanoma
  TGI: > 100 µM
LOX IMVI melanoma
  TGI: > 100 µM
PC-3 prostate
  TGI: > 100 µM
MALME-3M melanoma
  TGI: > 100 µM
T-47D breast
  TGI: > 100 µM
SNB-19 CNS
  TGI: > 100 µM

## CC(=O)Nc1ccc2c(c1)C(c1ccccc1Cl)=Nc1c(n[nH]c1C)N2
OVCAR-8 ovarian
  GI50: 13.4 µM
  TGI: > 25 µM
NCI-H23 lung
  GI50: 12.4 µM
  TGI: > 25 µM
UACC-257 melanoma
  GI50: > 25 µM
  TGI: > 25 µM
LOX IMVI melanoma
  GI50: 2.75 µM
  TGI: > 25 µM
PC-3 prostate
  GI50: > 25 µM
  TGI: > 25 µM
MALME-3M melanoma
  GI50: > 25 µM
  TGI: > 25 µM
T-47D breast
  GI50: 8.38 µM
  TGI: > 23.6 µM
SNB-19 CNS
  GI50: 6.36 µM
  TGI: > 25 µM

## CCOC(=O)c1ccc(NC(=O)Nc2nncs2)cc1
OVCAR-8 ovarian
  GI50: 0.371 µM
  TGI: 13.5 µM
NCI-H23 lung
  GI50: 0.649 µM
  TGI: 12.1 µM
UACC-257 melanoma
  GI50: 1.43 µM
  TGI: > 85.1 µM
LOX IMVI melanoma
  GI50: 0.485 µM
  TGI: 7.67 µM
PC-3 prostate
  GI50: 0.273 µM
  TGI: 24.2 µM
MALME-3M melanoma
  GI50: 0.132 µM
  TGI: 36.1 µM
T-47D breast
  GI50: 0.584 µM
  TGI: 34.4 µM
SNB-19 CNS
  GI50: 0.456 µM
  TGI: > 61.1 µM

## COC[C@@H](N=C1NC(=O)/C(=C/c2ccc3ncccc3c2)S1)c1ccccc1
OVCAR-8 ovarian
  GI50: 10.2 µM
  TGI: > 25 µM
NCI-H23 lung
  GI50: 11.5 µM
  TGI: > 25 µM
UACC-257 melanoma
  GI50: 8.09 µM
  TGI: > 25 µM
LOX IMVI melanoma
  GI50: 9.73 µM
  TGI: > 25 µM
PC-3 prostate
  GI50: 12.1 µM
  TGI: > 25 µM
MALME-3M melanoma
  GI50: > 23.1 µM
  TGI: > 25 µM
T-47D breast
  GI50: 8.43 µM
  TGI: > 25 µM
SNB-19 CNS
  GI50: 8.82 µM
  TGI: > 25 µM

## COc1ccc(C2CC(c3cccc(Nc4ccnc5cc(Cl)ccc45)c3)=NN2C=O)cc1 (stereo not drawn)
OVCAR-8 ovarian
  GI50: 1.12 µM
  TGI: > 100 µM
NCI-H23 lung
  GI50: 0.967 µM
  TGI: > 81.6 µM
UACC-257 melanoma
  GI50: 0.677 µM
  TGI: 34.8 µM
LOX IMVI melanoma
  GI50: 0.584 µM
  TGI: 6.8 µM
PC-3 prostate
  GI50: 0.577 µM
  TGI: > 100 µM
MALME-3M melanoma
  TGI: > 100 µM
T-47D breast
  GI50: 0.604 µM
  TGI: > 42.8 µM
SNB-19 CNS
  GI50: 0.902 µM
  TGI: > 100 µM

## Cc1nc([P+](c2ccccc2)(c2ccccc2)c2ccccc2)c(Sc2sc(-c3ccccc3)nc2[P+](c2ccccc2)(c2ccccc2)c2ccccc2)o1
OVCAR-8 ovarian
  GI50: 0.867 µM
  TGI: 11.6 µM
NCI-H23 lung
  GI50: 1.99 µM
  TGI: 5.92 µM
UACC-257 melanoma
  GI50: 2 µM
  TGI: 8.81 µM
LOX IMVI melanoma
  GI50: 1.82 µM
  TGI: 5.71 µM
PC-3 prostate
  GI50: 1.04 µM
  TGI: 2.72 µM
MALME-3M melanoma
  GI50: 1.36 µM
  TGI: 7.13 µM
T-47D breast
  GI50: 0.327 µM
  TGI: 8.81 µM
SNB-19 CNS
  GI50: 1.6 µM
  TGI: 12.2 µM

## CCOC(=O)C1Cc2c(cc3c4c(cccc24)N(C(C)=O)C3)N(C)C1 (stereo not drawn)
OVCAR-8 ovarian
  TGI: > 100 µM
NCI-H23 lung
  TGI: > 100 µM
UACC-257 melanoma
  TGI: > 100 µM
LOX IMVI melanoma
  TGI: > 100 µM
PC-3 prostate
  TGI: > 100 µM
MALME-3M melanoma
  TGI: > 100 µM
T-47D breast
  TGI: > 100 µM
SNB-19 CNS
  TGI: > 100 µM

## CC1=CC(=O)C2=C(C)CCC3C(C)C(=O)OC3C12 (stereo not drawn)
OVCAR-8 ovarian
  TGI: > 100 µM
NCI-H23 lung
  TGI: > 100 µM
UACC-257 melanoma
  TGI: > 100 µM
LOX IMVI melanoma
  TGI: > 100 µM
PC-3 prostate
  TGI: > 100 µM
MALME-3M melanoma
  TGI: > 100 µM
T-47D breast
  TGI: > 100 µM
SNB-19 CNS
  TGI: > 100 µM

## COc1ccc2c(c1)/C(=C\c1c(-c3cc(OC)ccc3OC)nc3sc(C)cn13)C(=O)N2C
OVCAR-8 ovarian
  GI50: 28.2 µM
  TGI: > 100 µM
NCI-H23 lung
  GI50: 38.5 µM
  TGI: > 100 µM
UACC-257 melanoma
  GI50: 23.5 µM
  TGI: 45.9 µM
LOX IMVI melanoma
  GI50: 23.9 µM
  TGI: 83.5 µM
PC-3 prostate
  GI50: 16.3 µM
  TGI: 93.8 µM
MALME-3M melanoma
  GI50: > 100 µM
  TGI: > 100 µM
T-47D breast
  GI50: 29.7 µM
  TGI: > 100 µM
SNB-19 CNS
  GI50: 58.9 µM
  TGI: > 100 µM

## Nc1nccc(-c2c(-c3ccc(F)cc3)ncn2C2CCNCC2)n1
OVCAR-8 ovarian
  GI50: 5.88 µM and 1.43 µM
  TGI: > 25 µM
NCI-H23 lung
  GI50: 9.71 µM and 4.41 µM
  TGI: > 25 µM and 18.8 µM
UACC-257 melanoma
  GI50: 10.2 µM and 3.45 µM
  TGI: > 25 µM and 17.6 µM
LOX IMVI melanoma
  GI50: 2.84 µM and 2.33 µM
  TGI: > 25 µM
PC-3 prostate
  GI50: 13.6 µM and 4.05 µM
  TGI: > 25 µM
MALME-3M melanoma
  GI50: 8.72 µM and 5.23 µM
  TGI: > 25 µM and 21.4 µM
T-47D breast
  GI50: 1.55 µM and 4.2 µM
  TGI: > 25 µM
SNB-19 CNS
  GI50: 6.91 µM and 3.96 µM
  TGI: > 25 µM

## CCN(CCCN(C)C)Cc1cc(I)cc(C)c1O
OVCAR-8 ovarian
  GI50: 34.2 µM
  TGI: > 100 µM
NCI-H23 lung
  GI50: 97.2 µM
  TGI: > 100 µM
UACC-257 melanoma
  GI50: 16.3 µM
  TGI: 32.5 µM
LOX IMVI melanoma
  GI50: 18.3 µM
  TGI: 34.6 µM
PC-3 prostate
  GI50: 21.5 µM
  TGI: 65.8 µM
MALME-3M melanoma
  GI50: 19.8 µM
  TGI: 36.8 µM
T-47D breast
  GI50: 21.3 µM
  TGI: 48.5 µM
SNB-19 CNS
  GI50: 26.9 µM
  TGI: 63.1 µM

## OCCN1CCN(CCCN2c3ccccc3Sc3ccc(Cl)cc32)CC1
OVCAR-8 ovarian
  GI50: 2.02 µM
  TGI: 4.7 µM
NCI-H23 lung
  GI50: 3.83 µM
  TGI: 18 µM
UACC-257 melanoma
  GI50: 1.66 µM
  TGI: 3.36 µM
LOX IMVI melanoma
  GI50: 1.59 µM
  TGI: 3.09 µM
PC-3 prostate
  GI50: 2.64 µM
  TGI: 12 µM
MALME-3M melanoma
  GI50: 1.79 µM
  TGI: 3.59 µM
T-47D breast
  GI50: 1.91 µM
  TGI: 5.56 µM
SNB-19 CNS
  GI50: 2.3 µM
  TGI: 5.7 µM

## CCSCC1CC(O)(c2ccccc2)CC(c2ccc(F)cc2)O1 (stereo not drawn)
OVCAR-8 ovarian
  GI50: 2.95 µM
  TGI: 8.79 µM
NCI-H23 lung
  GI50: 2.1 µM
  TGI: 5.28 µM
UACC-257 melanoma
  GI50: 2.27 µM
  TGI: 5.26 µM
LOX IMVI melanoma
  GI50: 1.6 µM
  TGI: 2.94 µM
PC-3 prostate
  GI50: 1.82 µM
  TGI: 4.89 µM
MALME-3M melanoma
  GI50: 1.56 µM
  TGI: 3.51 µM
T-47D breast
  GI50: 2.23 µM
  TGI: 8.24 µM
SNB-19 CNS
  GI50: 2.63 µM
  TGI: 9.36 µM

## CCCCCCCCCCCCOC1C(CNC(=O)C2OC3OC(C)(C)OC3C2NC(=O)Nc2ccc(CC(=O)OC)cc2)OC2OC(C)(C)OC21 (stereo not drawn)
OVCAR-8 ovarian
  GI50: > 100 µM
  TGI: > 100 µM
NCI-H23 lung
  GI50: > 100 µM
  TGI: > 100 µM
UACC-257 melanoma
  GI50: > 100 µM
  TGI: > 100 µM
LOX IMVI melanoma
  GI50: 47.7 µM
  TGI: > 100 µM
PC-3 prostate
  GI50: > 100 µM
  TGI: > 100 µM
MALME-3M melanoma
  GI50: > 78.1 µM
  TGI: > 100 µM
T-47D breast
  GI50: > 100 µM
  TGI: > 100 µM
SNB-19 CNS
  GI50: > 100 µM
  TGI: > 100 µM

## c1ccc2sc(SCCSc3nc4ccccc4s3)nc2c1
OVCAR-8 ovarian
  TGI: > 100 µM
NCI-H23 lung
  TGI: > 100 µM
UACC-257 melanoma
  TGI: > 100 µM
LOX IMVI melanoma
  TGI: > 100 µM
PC-3 prostate
  TGI: > 100 µM
MALME-3M melanoma
  TGI: > 100 µM
T-47D breast
  TGI: > 100 µM
SNB-19 CNS
  TGI: > 100 µM

## Cc1cccc(N(C)C(=O)[C@@H]2[C@H](O)CCN2c2nc(C)cc(C(F)(F)F)c2C#N)c1
OVCAR-8 ovarian
  GI50: 28.1 µM
  TGI: > 100 µM
NCI-H23 lung
  GI50: 31.2 µM
  TGI: > 100 µM
UACC-257 melanoma
  GI50: 28.3 µM
  TGI: > 100 µM
LOX IMVI melanoma
  GI50: 3.61 µM
  TGI: 27.3 µM
PC-3 prostate
  GI50: 15.4 µM
  TGI: 67.2 µM
MALME-3M melanoma
  GI50: 19.9 µM
  TGI: 59 µM
T-47D breast
  GI50: 23.2 µM
  TGI: > 100 µM
SNB-19 CNS
  GI50: 31.1 µM
  TGI: > 100 µM
